Consider 34 compounds from patent US20060074243A1, “Hydroxamic acid and amide compounds and their use as protease inhibitors” (Pharmacia Corporation, priority 2002, published 2006).

Experiment [1] has as its target T1, Human recombinant MMP-9 (Homo sapiens, UniProt P14780).
T1 construct: made in house; host or cells: MMP-9-transfected HT1080 cells (spent media)
The experiment can be described thus: In vitro MMP inhibition analysis (fluorogenic peptide substrate cleavage), Ki. Format: biochemical. On the procedure:
(§1) Several compounds and salts were analyzed in an in vitro assay to determine their ability to inhibit the MMP cleavage of peptide substrates. Inhibition constant (Ki) were calculated from the assayed compound-MMP interactions.
(§2) Human recombinant MMP-1, MMP-2, MMP-9, MMP-13, and MMP-14 were used in this assay. All enzymes were prepared in Assignee's laboratories following usual laboratory procedures. Protocols for the preparation and use of these enzymes are available in the scientific literature. See, e.g., Enzyme Nomenclature (Academic Press, San Diego, Calif., 1992) (and the citations therein). See also, Frije et al., J. Biol. Chem., 26(24), 16766-73 (1994).
The MMP-9 proenzyme was purified by gelatin Sepharose chromatography from spent media of MMP-9-transfected HT1080 cells provided by Dr. Howard Welgus of Washington University (St. Louis, Mo.).
(§3) All MMPs were activated using 4-aminophenylmercuric acetate (“APMA”, Sigma Chemical, St. Louis, Mo.) or trypsin. MMP-9 also was activated using human recombinant MMP-3 (purified in Assignee's laboratory following standard cloning and purification techniques).
(§4) The following fluorogenic, methoxycoumarin-containing polypeptide substrate (I) was used in the MMP inhibition assays: MCA-ArgProLeuGlyLeuDpaAlaArgGluArgNH2 (I) “MCA” is 7-methoxycoumarin-4-yl acetyl. Substrate (I) was prepared Assignee's laboratory. In the absence of MMP inhibitory activity, the substrate is cleaved at the Gly-Leu peptide bond. This cleavage separates the highly fluorogenic peptide from the 2,4-dinitrophenyl quencher, thus resulting in increase of fluorescent intensity.
(§5) The stock solutions of the assayed compounds and salts were prepared in […] (DMSO). These stock solutions were diluted in Buffer A (100 mM Tris-HCl, 100 mM NaCl, 10 mM CaCl2, 0.05% polyoxyethylene 23 lauryl ether, pH 7.5) to obtain solutions with different compound concentrations, i.e., assay solutions with different concentrations of the assayed […] compound. The experiment controls contained the same amount of Buffer A/DMSO as the assayed sample, but contained none of the tested compound or salt.
(§6) The assays from which the Ki determinations were made were performed as follows. The assayed compound samples were incubated in separate wells of untreated white polystyrene plates (Nunc Nalgene International, Rochester, N.Y.), and analyzed on a Tecan SpectraFlour Plus plate reader. The excitation wavelength was 330 nm, and the emission wavelength—420 nm. All samples (assayed compounds and controls) were incubated in separate plate wells at room temperature for 1 hr in the presence of 4 μM of MMP substrate (I). In the absence of MMP inhibitory activity, substrate (I) was cleaved at the Gly-Leu bond resulting in an increase of relative fluorescence. Inhibition was observed as a reduced rate of this increase in relative fluorescence. […] This protocol is a modification of method by Knight et al., FEBS Lett., 296(3), 263-266 (1992). Apparent inhibitory constants were determined by non-linear regression of reaction velocity as a function of inhibitor and enzyme concentration using Morrison's equation, as described by Kuzmic, Anal. Biochem. 286, 45-50 (2000). Modifications were made in the non-linear regression method to allow a common control reaction rate and effective enzyme concentration to be shared between all dose-response relationships on a given assay plate. Since the substrate concentration was chosen to be at or below the Km, the apparent Ki's from this analysis were reported as Ki's without correction for the influence of substrate.
The above protocols were used to determine Ki constants for the compounds in Examples 2-35 above. All Ki values in Table 1 are given in nM units.

Experiment [2] addresses T2, Human recombinant MMP-13 (Homo sapiens, UniProt P45452).
T2 construct: made in house; host or cells: baculovirus / insect cells
The experiment is described as above. Format: biochemical. On the procedure: as §1, §2
The MMP-13 was obtained as a proenzyme from a full-length cDNA clone using baculovirus, as described by V. A. Luckow, “Insect Cell Expression Technology,” Protein Engineering: Principles and Practice, pp. 183-218 (edited by J. L. Cleland et al., Wiley-Liss, Inc., 1996). The expressed proenzyme was first purified over a heparin agarose column, and then over a chelating zinc chloride column. The proenzyme was then activated by APMA for use in the assay. Further details on baculovirus expression systems may be found in, for example, Luckow et al., J. Virol., 67, 4566-79 (1993). See also, O'Reilly et al, Baculovirus Expression Vectors: A Laboratory Manual (W.H. Freeman and Co., New York, N.Y., 1992). See also, King et al., The Baculovirus Expression System: A Laboratory Guide (Chapman & Hall, London, England, 1992).
as §3, §4, §5
as §6, with “Modifications were made in the non-linear regression method to allow a common control reaction rate and effective enzyme concentration to be shared between all dose-response relationships on a given assay plate. Since the substrate concentration was chosen to be at or below the Km, the apparent Ki's from this analysis were reported as Ki's without correction for the influence of substrate.” left out

Structures are written as SMILES.

T1 sequence (P14780 107-707 limits assumed): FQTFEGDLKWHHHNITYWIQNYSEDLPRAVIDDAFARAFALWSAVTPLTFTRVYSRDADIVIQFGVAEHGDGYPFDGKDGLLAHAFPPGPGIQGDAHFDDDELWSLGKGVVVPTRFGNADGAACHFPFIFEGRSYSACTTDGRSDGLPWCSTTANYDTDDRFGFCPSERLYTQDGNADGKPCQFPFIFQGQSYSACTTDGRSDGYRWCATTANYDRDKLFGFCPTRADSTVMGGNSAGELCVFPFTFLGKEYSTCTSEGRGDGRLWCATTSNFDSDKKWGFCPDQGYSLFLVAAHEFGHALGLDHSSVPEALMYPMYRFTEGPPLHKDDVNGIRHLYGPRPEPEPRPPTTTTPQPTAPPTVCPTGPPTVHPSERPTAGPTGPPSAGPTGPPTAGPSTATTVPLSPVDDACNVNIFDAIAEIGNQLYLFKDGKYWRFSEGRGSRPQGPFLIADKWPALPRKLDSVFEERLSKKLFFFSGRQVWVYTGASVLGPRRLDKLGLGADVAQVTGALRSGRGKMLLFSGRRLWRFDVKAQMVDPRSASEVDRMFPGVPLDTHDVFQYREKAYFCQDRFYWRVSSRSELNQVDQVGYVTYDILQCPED

Take `O=C(NO)C1(S(=O)(=O)c2ccc(-c3ccc(CCC(F)(F)C(F)(F)F)cc3)cc2)CCOCC1` [Example 41]: the figures for the inhibitory constant (Ki) in experiment [1] (Table 1) and in experiment [2] (Table 1) were 0.937 nM and 0.224 nM, respectively.
In the case of `CCOCCOc1ccc(-c2ccc(S(=O)(=O)C3(C(=O)NO)CCOCC3)cc2)cc1` [Example 37], the Ki in experiment [1] (Table 1) was determined as 3.51 nM; in experiment [2] (Table 1) it was 0.028 nM.
Consider `CCN1CCC(C(=O)NO)(S(=O)(=O)c2ccc(-c3ccc(-c4csc(C)n4)cc3)cc2)CC1` [Example 155], for which the figures for the Ki in experiment [1] (Table 2) and in experiment [2] (Table 2) were 0.44 nM and 0.17 nM, respectively.
With `O=C(NO)C1(S(=O)(=O)c2ccc(-c3ccc(CCC(F)(F)C(F)(F)F)cn3)cc2)CCOCC1` [Example 36], the Ki in experiment [1] (Table 1) was 0.258 nM; in experiment [2] (Table 1) it was 0.0403 nM.
For `CC(F)(F)CCc1cnc(-c2ccc(S(=O)(=O)C3(C(=O)NO)CCOCC3)cc2)cn1` [Example 60], the figures for the Ki in experiment [1] (Table 1) and in experiment [2] (Table 1) were 0.623 nM and 0.212 nM, respectively.
Take `O=C(NO)C1(S(=O)(=O)c2ccc(-c3cnc(OCC(F)(F)C(F)(F)F)cn3)cc2)CCOCC1` [Example 154]: the figures for the inhibitory constant (Ki) in experiment [1] (Table 2) and in experiment [2] (Table 2) were 0.34 nM and 0.12 nM, respectively.
Take `CCN1CCC(C(=O)NO)(S(=O)(=O)c2ccc(-c3cnc(CCC(C)(F)F)cn3)cc2)CC1` [Example 64]: the inhibitory constant (Ki) worked out at 0.677 nM in experiment [1] (Table 1) and 0.296 nM in experiment [2] (Table 1).
`CCOc1ccc(-c2ccc(S(=O)(=O)C3(C(=O)NO)CCOCC3)cc2)cc1` [Example 163]: the inhibition constant (Ki) is 0.03 nM in experiment [1] (Table 2) and 0.011 nM in experiment [2] (Table 2).
For `O=C(NO)C1(S(=O)(=O)c2ccc(-c3ccc(-c4ccccc4F)cn3)cc2)CCN(C2CC2)CC1` [Example 150] the same measures were 0.47 nM and 0.12 nM.
Take `CC(C)(C)N1CCC(C(=O)NO)(S(=O)(=O)c2ccc(-c3ccc(CCCC(F)(F)F)cc3)cc2)CC1` [Example 48]: the Ki is 3.54 nM in experiment [1] (Table 1) and 0.221 nM in experiment [2] (Table 1).
Consider `CCN1CCC(C(=O)NO)(S(=O)(=O)c2ccc(-c3ccc(CCCC(F)(F)F)cn3)cc2)CC1` [Example 53], for which the Ki came out at 1 nM in experiment [1] (Table 1) and 0.06 nM in experiment [2] (Table 1).
On to `CCN1CCC(C(=O)NO)(S(=O)(=O)c2ccc(-c3noc(-c4ccc(F)cc4)n3)cc2)CC1` [Example 147], for which the results for the Ki in experiment [1] (Table 2) and in experiment [2] (Table 2) were 7.09 nM and 2.59 nM, respectively.
Turning to `COCCC(C(=O)NO)S(=O)(=O)c1ccc(-c2ccc(CCCC(F)(F)F)cc2)cc1` (centres unmarked) [Example 47], the Ki in experiment [1] (Table 1) worked out at 2.8 nM; in experiment [2] (Table 1), 0.4 nM.
For `O=C(NO)C1(S(=O)(=O)c2ccc(-c3ccc(CCCC(F)(F)F)cn3)cc2)CCOCC1` [Example 69], the Ki in experiment [1] (Table 1) stood at 0.719 nM; in experiment [2] (Table 1), 0.082 nM.
Take `O=C(NO)C1(S(=O)(=O)c2ccc(-c3ccc(-c4ccncc4)cc3)cc2)CCOCC1` [Example 141]: the Ki in experiment [1] (Table 2) came out at 0.198 nM; in experiment [2] (Table 2), 0.012 nM.
With `O=C(NO)C1(S(=O)(=O)c2ccc(-c3ccc(OC(F)(F)C(F)F)cc3)cc2)CCN(C2CC2)CC1` [Example 40], the inhibition constant (Ki) in experiment [1] (Table 1) worked out at 0.102 nM; in experiment [2] (Table 1) it was 0.066 nM.
For `CCN1CCC(C(=O)NO)(S(=O)(=O)c2ccc(-c3ccc(CCC(C)(F)F)cc3)cc2)CC1` [Example 61] the same measures were 0.26 nM and 0.02 nM.
As for `CC(=O)Nc1cnc(-c2ccc(S(=O)(=O)C3(C(=O)NO)CCOCC3)cc2)cn1` [Example 76], the results for the Ki in experiment [1] (Table 2) and in experiment [2] (Table 2) were 114 nM and 31.7 nM, respectively.
Take `COCCN1CCC(C(=O)NO)(S(=O)(=O)c2ccc(-c3ccc(CCC(C)(F)F)cc3)cc2)CC1` [Example 63]: the Ki in experiment [1] (Table 1) stood at 0.08 nM; in experiment [2] (Table 1), 0.01 nM.
Take `O=C(NO)C1(S(=O)(=O)c2ccc(-c3ccc(-n4cncn4)cc3)cc2)CCOCC1` [Example 126]: the Ki in experiment [1] (Table 2) is 1.92 nM; in experiment [2] (Table 2), 0.048 nM.
As for `O=C(NO)C1(S(=O)(=O)c2ccc(-c3cnc(CCC(F)(F)C(F)(F)F)nc3)cc2)CCOCC1` [Example 142], the Ki in experiment [1] (Table 2) was found to be 76.6 nM; in experiment [2] (Table 2), 22.5 nM.
For `O=C(NO)C1(S(=O)(=O)c2ccc(-c3cnc(CCCC(F)(F)F)cn3)cc2)CCOCC1` [Example 58], the Ki in experiment [1] (Table 1) stood at 1.67 nM; in experiment [2] (Table 1), 0.45 nM.
`O=C(NO)C1(S(=O)(=O)c2ccc(-c3cnc(CCC4CC4)cn3)cc2)CCOCC1` [Example 49]: the values for the inhibition constant Ki in experiment [1] (Table 1) and in experiment [2] (Table 1) were 0.88 nM and 0.71 nM, respectively.
On to `COCCN1CCC(C(=O)NO)(S(=O)(=O)c2ccc(-c3ccc(CCCC(F)(F)F)cc3)cc2)CC1` [Example 43], for which the inhibitory constant (Ki) in experiment [1] (Table 1) was determined as 0.43 nM; in experiment [2] (Table 1), 0.06 nM.
`COCCN1CCC(C(=O)NO)(S(=O)(=O)c2ccc(-c3cnc(CCC(C)(F)F)cn3)cc2)CC1` [Example 65]: the inhibition constant Ki in experiment [1] (Table 1) was 0.375 nM; in experiment [2] (Table 1), 0.27 nM.
On to `COCCN1CCC(C(=O)NO)(S(=O)(=O)c2ccc(-c3ccc(OC(F)(F)C(F)F)cc3)cc2)CC1` [Example 39], for which the Ki in experiment [1] (Table 1) worked out at 0.045 nM; in experiment [2] (Table 1), 0.011 nM.
As to `CN1CCC(C(=O)NO)(S(=O)(=O)c2ccc(-c3ccc(OC(F)(F)C(F)F)cc3)cc2)CC1` [Example 146], the Ki in experiment [1] (Table 2) worked out at 0.48 nM; in experiment [2] (Table 2), 0.15 nM.
On the same counts, the results for `CCc1cnc(-c2ccc(S(=O)(=O)C3(C(=O)NO)CCOCC3)cc2)nc1` [Example 122] are 4.84 nM and 1.56 nM.
Regarding `O=C(NO)C1(S(=O)(=O)c2ccc(-c3cnc(OCC(F)(F)C(F)(F)F)cn3)cc2)CCN(C2CC2)CC1` [Example 156], the Ki in experiment [1] (Table 2) turned out to be 0.48 nM; in experiment [2] (Table 2), 0.31 nM.
`O=C(NO)C1(S(=O)(=O)c2ccc(-c3cnc(C4CCCC4)cn3)cc2)CCOCC1` [Example 162]: the Ki in experiment [1] (Table 2) worked out at 34 nM; in experiment [2] (Table 2), 0.95 nM.
As to `O=C(NO)C1(S(=O)(=O)c2ccc(-c3ccc(-c4ccccc4)cn3)cc2)CCN(C2CC2)CC1` [Example 151], the Ki in experiment [1] (Table 2) amounted to 0.09 nM; in experiment [2] (Table 2), 0.05 nM.
With `O=C(NO)C1(S(=O)(=O)c2ccc(-c3ncccn3)cc2)CCOCC1` [Example 121], the Ki in experiment [1] (Table 2) is 57.9 nM; in experiment [2] (Table 2) it was 4.86 nM.
Take `O=C(NO)C1(S(=O)(=O)c2ccc(-c3ccc(CCCC(F)F)cc3)cc2)CCOCC1` [Example 57]: the values for the Ki in experiment [1] (Table 1) and in experiment [2] (Table 1) were 0.38 nM and 0.04 nM, respectively.
With `CCCCOc1ccc(-c2ccc(S(=O)(=O)C3(C(=O)NO)CCN(C4CC4)CC3)cc2)cc1` [Example 120], the Ki in experiment [1] (Table 2) stood at 0.336 nM; in experiment [2] (Table 2), 0.082 nM.
